Legend:
Assay in all cases: MTS cytotoxicity assay, 72 hours, single agents and combinations with Aplidine
Format in all cases: cell-based
MOLT3 cells = settings: MOLT3, 72 hours drug exposure, read-out: IC50 (Molar)
Experimental: (§1) Day before plating cells all cultures were fed with fresh, complete growth media. On the harvest (plating) day cells were counted by Trypan Blue exclusion staining method (basic cell culture). Cells were harvested and seeded in 96 well microtiter plates at 10,000 cells per well in 190 μL of media and incubated for 24 hours to allow the cells to attach before drug addition. Cells were treated with the drugs and the cytotoxic effect was measured by the MTS Assay (Tetrazolium), which is a colorimetric method for determining the number of viable cells. After the 72 hours of incubation with drug, 25 μL of MTS+PMS solution was added to each microtiter well and incubated for 4 hours at 37° C. Plates were then removed from incubator and placed on plate shaker for 5 minutes (covered with aluminium foil for protection from light). Optical densities were read at 490 nm on spectrophotometer plate reader.
(§2) The microtiter plates were incubated for 72 hrs, at 5% CO2 and 37° C. The cytotoxic effect was measured by MTS Assay. Optical densities read at 490 nm. Normalized data was plotted and interpreted as described. Data was analysed as: • 1. Prism (Graphpad) software program was used to normalized the data to control values (100%=cell growth in the absence of agent (drug); 0%=blank control). • 2. Data normalized were plotted as scatter plots.
(§3) Conversely, antagonism was concluded when inhibition was lower than both maxima. […] Statistical significance was assessed by performing a student's t-test on the inhibition at each dose ratio versus the inhibition at the maximum for each drug.
(§4) As a visual aid, response values were plotted on a scatter plot with dose ratios given on the x-axis and % response values on the y-axis. […] In cases where response values at the two endpoints were approximately equivalent, points lying above or below this predicted line of additivity could be interpreted as representing antagonistic or synergistic drug interaction, respectively.

A549 cells = settings: A549, 72 hours drug exposure, read-out: IC50 (Molar)
Experimental: as §1, §2, §3, §4

SKBR3 cells = settings: SKBR3, 72 hours drug exposure, read-out: IC50 (Molar)
Experimental: as §1, §2, §3, §4

HL60 cells = settings: HL60, 72 hours drug exposure, read-out: IC50 (Molar)
Experimental: as §1, §2, §3, §4

HT29 cells = settings: HT29, 72 hours drug exposure, read-out: IC50 (Molar)
Experimental: as §1, §2, §3, §4

PC3 cells = settings: PC3, 72 hours drug exposure, read-out: IC50 (Molar)
Experimental: as §1, §2, §3, §4

MX1 cells = settings: MX1, 72 hours drug exposure, read-out: IC50 (Molar)
Experimental: as §1, §2, §3, §4

`N.N.O=C([O-])C1(C(=O)[O-])CCC1.[Pt+2]` [carboplatin] showed an IC50 (MOLT3 cells) of 4 µM, an IC50 (A549 cells) of 310 µM and an IC50 (SKBR3 cells) of 52 µM. The IC50 (HL60 cells) was 56 µM, the IC50 (HT29 cells) was 260 µM and the IC50 (PC3 cells) was > 100 µM. For the same compound, the IC50 (MX1 cells) was > 100 µM.

Source: patent US8258098B2, “Antitumoral treatments” (Pharma Mar, S.A., priority 2006, dated 2012)
